# Results published in patent US20190233287A1, “Methods To Prepare Haloamines Using At Least One Solid Reactant And Products Made Therefrom” (Buckman Laboratories International, Inc., priority 2018, published 2019).
# Legend:
# [1] = Chlorate ion concentration by Ion Chromatography; type: physicochemical; conditions: aqueous solutions of the Dantochlor product (1.5-72 ppm); detection limit 0.5 ppm
# Protocol: The chlorate ion concentration was also analyzed for various aqueous solutions of the Dantochlor product (1.5-72 ppm); chlorate ion was not detected above the method's detection limit of 0.5 ppm.
# [2] = Chlorine content, MCA content and pH of solutions, measured at once and again after 1 hour; type: physicochemical; conditions: 0.1 wt % Dantochlor aqueous solution, pH 11.2, measured instantly
# Protocol: In this experiment the chlorine-releaser was granular Dantochlor (DCDMH), and the ammonium source was BUSPERSE 2454 (already in the form of an aqueous ammonium sulfate). A one liter aqueous solution containing 0.1 wt % Dantochlor was prepared. This aqueous solution was adjusted to a pH of 11.2 using NaOH (50%).
# A molar equivalent amount of BUSPERSE 2454 was ±0.7 ml for a one liter solution. A 30% molar overdosage was used and thus, 1 ml of BUSPERSE 2454 was added to the aqueous solution of Dantochlor.
# [3] = weak acid; cited from earlier work
smiles,measurement,setting,value
"CC1(C)C(=O)N(Cl)C(=O)N1Cl [Dantochlor, dichlorodimethylhydantoin]",chlorate ion concentration,[1],< 0.5 ppm
same,Free Cl2,[2],274 ppm Cl2
same,Total Cl2,[2],600 ppm Cl2
"OCl [HOCl, hypochlorous acid]",pKa,[3],7.5
